Tests used:
Arabidopsis seeds = assay: Seed germination on media containing ABA; format: in vivo, Arabidopsis thaliana; conditions: 1 μM ABA
Procedure: (§1) All seeds of the above-described lines were surface sterilized with 70% ethanol for 30 s and then with 6% household bleach for 5 min before being washed five times with sterile water. For aseptic growth, they were plated on solid medium containing Murashige and Skoog salts (Invitrogen), vitamins (Duchefa), 0.7% phytoagar (Invitrogen), and 1% sucrose and transferred to a tissue culture room. For soil growth, seedlings were transferred into individual pots 8-10 days after germination and maintained in the growth chamber. Plants were grown at 22° C. under a 16-hr-light/8-hr-dark photoperiod aseptically or on soil.
To determine whether the transgenic plants display altered ABA responses, the above-described lines were germinated on media containing various concentrations of ABA. Seeds collected at the same or similar times were used. After surface-sterilization, sterile seeds were suspended in 0.15% agarose, and kept in the dark at 4° C. for 3 days to break residual dormancy. The seeds were then plated on agar plates in six replicates containing no ABA or 0.25, 0.5, 0.75, or 1.0 μM ABA in 12-cm plastic petri dishes. Each agar plate was divided into seven sections, and 50 seeds of WT and AtTLP9 transgenic seeds were plated on each section. A seed was regarded as germinated when the radicle protruded through the seed coat.

Arabidopsis seedlings = assay: Seedling growth and greening on MS agar with ABA; format: in vivo, Arabidopsis thaliana; conditions: 1 μM ABA and 1% sucrose
Procedure: as §1
In contrast, under the same conditions, attlp9-1 and attlp9-2 plants continued to grow and about 45% of the seedlings continued to develop true leaves, although at slower rates than abi4-1 mutant does.

AtTLP7 gene expression = conditions: channel 2 treated vs channel 1 control; cited from earlier work
AtTLP10 gene expression = conditions: channel 2 treated vs channel 1 control; cited from earlier work
ASK1 = biological target: T1, ASK1 (Arabidopsis thaliana, UniProt Q39255); assay: Yeast two-hybrid analysis; format: binding; conditions: AtTLP9 in pBD-GAL4 Cam, ASK1 in pAD-GAL4-2.1, yeast strain YRG-2
T1 construct: fragment containing the entire coding region of ASK1 (At1g75950); expressed in transfected cells; host or cells: Saccharomyces cerevisiae strain YRG-2
T1 sequence (Q39255 1-160): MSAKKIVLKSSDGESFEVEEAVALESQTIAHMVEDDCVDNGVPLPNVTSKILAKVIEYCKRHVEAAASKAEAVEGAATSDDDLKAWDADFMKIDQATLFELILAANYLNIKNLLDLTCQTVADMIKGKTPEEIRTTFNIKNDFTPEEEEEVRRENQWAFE
T1 sequence (Q9SQU1 1-380 partner): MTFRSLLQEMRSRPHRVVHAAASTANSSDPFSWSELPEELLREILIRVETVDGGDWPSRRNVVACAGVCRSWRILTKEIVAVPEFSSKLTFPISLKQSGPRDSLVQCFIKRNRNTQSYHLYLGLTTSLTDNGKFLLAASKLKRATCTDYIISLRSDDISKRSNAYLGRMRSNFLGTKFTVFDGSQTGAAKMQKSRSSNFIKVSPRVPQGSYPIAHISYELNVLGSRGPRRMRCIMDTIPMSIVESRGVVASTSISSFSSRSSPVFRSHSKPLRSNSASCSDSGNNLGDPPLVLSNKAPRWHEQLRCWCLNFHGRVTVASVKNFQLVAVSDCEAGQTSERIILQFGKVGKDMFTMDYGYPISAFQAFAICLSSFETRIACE
From the text: To test whether AtTLP could interact with ASK1, AtTLP9 was examined by the yeast two-hybrid analysis. Yeast two-hybrid vectors, pAD-GAL4-2.1 and pBD-GAL4 Cam (Stratagene, La Jolla, Calif.), were used for C-terminal GAL4 AD and BD fusion constructions, respectively. A 1.1-kb SalI-PstI fragment containing the entire coding region of AtTLP9 was cloned into the SalI-PstI site of the pBD-GAL4 Cam vector. A 480-bp EcoRI-PstI fragment containing the entire coding region of ASK1 (At1g75950) was cloned into the EcoRI-PstI site of the pAD-GAL4-2.1 vector. The yeast strain YRG-2 [MATa ura3-52 his3-200 ade2-101 lys2-801 trp1-901 leu2-3,112 ga14-542 ga180-538 LYS2::GAL1UAS-GAL1TATA-HIS3 URA3::(GAL43×17mer)-CYC1TATA-lacZ] was co-transformed with the two vectors. The Y2H analysis was performed according to the manufacturer's recommendations (Stratagene).

CC1=CC(=O)CC(C)(C)[C@@]1(O)/C=C/C(C)=C\C(=O)O [ABA, Abscisic acid]
germination rate (Arabidopsis seeds; attlp9-1 and attlp9-2 mutant seeds): ~50% | germination rate (Arabidopsis seeds; sense lines seeds (35S::AtTLP9 overexpression)): less than 10% | seeds able to germinate (Arabidopsis seeds; wild-type seeds): about 30% | seedlings showing developmental arrest (Arabidopsis seedlings; 10-d-old seedlings of sense lines): 90% | seedlings continuing to develop true leaves (Arabidopsis seedlings; attlp9-1 and attlp9-2 plants): about 45%

O=C(O)Cc1c[nH]c2ccccc12 [IAA]
Ch2/Ch1 Normalized (Mean) AtTLP7 (AtTLP7 gene expression): 2.21

O=C(O)Cc1cccc2ccccc12 [NAA]
Ch2/Ch1 Normalized (Mean) AtTLP7 (AtTLP7 gene expression): 0.46 | Ch2/Ch1 Normalized (Mean) AtTLP10 (AtTLP10 gene expression): 2.22

B1: AtTLP9: Arabidopsis TUBBY-like protein, polypeptide SEQ ID NO: 9 (protein, listed as Arabidopsis sp.)
chain: T1 sequence (Q9SQU1 1-380 partner)
interaction with ASK1 (ASK1): physically interacts with ASK1

— US8410337B2, “Plant tubby-like proteins” (Academia Sinica, priority 2003, dated 2013)
